Here are results for seven compounds from ChEMBL document CHEMBL4610027, “Identification of Mycobacterium tuberculosis CtpF as a target for designing new antituberculous compounds” (Bioorg Med Chem, 2020).

Converted amounts (≈) assume the structure as drawn. The source made the active and inactive calls.

For data set [1], the system named is Mycobacterium tuberculosis. Nature of the data set: Antimycobacterial activity against Mycobacterium tuberculosis H37Rv incubated for 6 days by resazurin dye-based colorimetric method. It is filed as functional. The following applies: 144 h. In general terms: Alamar Blue is a resazurin reagent that responds to reducing activity.
Data set [2] relates to Mycobacterium tuberculosis. Put plainly: Antimycobacterial activity against Mycobacterium tuberculosis H37Rv assessed as inhibition of bacterial growth at MIC incubated for 21 days by colony formation assay relative to control. It is filed as functional.
Data set [3] in a line: Cytotoxicity against mouse MHS cells assessed as cell death at 100 ug/ml incubated for 48 hrs by crystal violet staining based spectrophotometric analysis relative to control.
Data set [4] is described as follows: Hemolytic activity against human erythrocytes assessed as hemolysis at 100 ug/ml incubated for 2 hrs by spectrophotometric analysis. It is filed as ADME, cell-based, Erythrocyte. The following applies: read-out: Activity.
The nature of data set [5]: (§1) Inhibition of calcium stimulated Mycobacterium tuberculosis H37Ra CtpF ATPase activity using Na2ATP as substrate preincubated for 30 mins followed by substrate addition and measured after 30 mins by colorimetric analysis.
The nature of data set [6]: Octanol/water partition coefficient, log P of the compound. It is filed as physicochemical.
Data set [7] relates to Mycobacterium tuberculosis. Nature of the data set: Potency index, ratio of CPA MIC to test compound MIC for Mycobacterium tuberculosis H37Rv. Format: functional.
Data set [8] concerns Mycobacterium tuberculosis H37Ra. Put plainly: Inhibition of calcium stimulated Mycobacterium tuberculosis H37Ra CtpF ATPase activity at 100 uM using Na2ATP as substrate preincubated for 30 mins followed by substrate addition and measured after 30 mins by colorimetric analysis relative to control.
Data set [9] shares this test system. Described as §1.
The next data set has as its system Listeria monocytogenes. Nature of the data set: Inhibition of Listeria monocytogenes Ca2+ ATPase.
The nature of data set [10]: Inhibition of Bacillus cereus Ca2+ ATPase.

The MIC is the smallest concentration in the dilution series that meets the test's criterion for growth inhibition. A low value points to inhibition by little substance. Broadly, the inhibition is the percentage by which the read-out fell short of the control. As usually defined, the IC50 is the midpoint of a concentration-inhibition curve. Usually logP stands for a log measure of how a compound divides between an organic and an aqueous phase. The low end stands for a more hydrophilic compound, the high end for a more lipophilic compound. In [1], `CCC[C@H](C)NC(=O)CSc1nc2cc(S(=O)(=O)Nc3ccccc3OC)ccc2o1` had an MIC above 200 mg/L. The inhibition result in data set [2] is “inactive”. In addition, the Activity in data set [3] amounted to 39.5%. For the same compound, in data set [4], the hemolysis at 2 h, 100 ug/ml was found to be 1%. The IC50 in data set [5] is 35.9 µM. The compound also had a logP in data set [6] of 4.08.

As to `NS(=O)(=O)[C@H]1CC=C(CNC(=O)CCCc2c[nH]c3ccccc23)S1`, inhibition of growth in data set [1] (MIC) required 50 mg/L (≈ 132 µM). Moreover, in data set [2], the “inhibition (INH)” value was determined as 64%. In addition, in data set [3], the Activity is reported as 12.9%. In addition, the hemolysis at 2 h, 100 ug/ml in data set [4] came out at 2%. Besides, the concentration for half-maximal inhibition (IC50) in data set [5] was found to be 4.4 µM. In addition, in data set [7], the Ratio was 0.5. Also, the inhibition in [8] is 44.9%. The same compound showed a logP in data set [6] of 1.68.

`CCCCC(=O)Nc1cccc(C(=O)NCCCNc2cccnc2)c1` displayed a minimal inhibitory concentration (MIC) in data set [1] of 100 mg/L (≈ 282 µM). Moreover, the “inhibition (INH)” value in data set [2] is given as 52.9%. Moreover, the Activity in data set [3] was 21.4%. The hemolysis at 2 h, 100 ug/ml in data set [4] turned out to be 1.2%. Further, the half-inhibitory concentration (IC50) in data set [5] was determined as 4.2 µM. Besides, in [8], the inhibition is 46.9%. The compound further registered a log partition coefficient (logP) in data set [6] of 2.91.

`COCC(=O)Nc1c(C(=O)OC)n(CCC(C)C)c2ncc(N[C@@H](C)C(C)(C)O)cc12`: the minimal inhibitory concentration (MIC) in data set [1] is 50 mg/L (≈ 115 µM). Further, the “inhibition (INH)” value in data set [2] was 60.7%. Besides, in [3], the Activity was 19.8%. The hemolysis at 2 h, 100 ug/ml in [4] is 0.6%. The half-maximal inhibitory concentration (IC50) in [5] came out at 8 µM. Further, the Ratio in data set [7] amounted to 0.5. The logP in data set [6] turned out to be 3.32.

In data set [1], `CC(=O)C1=C(O)[C@@H]2[C@H]3c4c[nH]c5cccc(c45)C[C@H]3C(C)(C)N2C1=O` [CYCLOPIAZONIC ACID] yielded an MIC of 100 mg/L (≈ 297 µM). For the same compound, the “inhibition (INH)” value in data set [2] turned out to be 29.9%. Moreover, the Activity in data set [3] stood at 50.8%. Further, the hemolysis at 2 h, 100 ug/ml in data set [4] stood at 6.6%. The IC50 turned out to be 7.2 µM in data set [5] and 4 µM in [10]. Further, in data set [9], the inhibition entry was “Dose-dependent effect”. For the same compound, the logP in [6] came to 2.21. Besides, the INH in the data set with Listeria monocytogenes stood at 918 µM.

As to `O=C(CCCC[C@@H]1SC[C@@H]2NC(=O)N[C@@H]21)NCc1cn(-c2ccccc2)nc1-c1ccccc1`, the MIC in data set [1] is 100 mg/L (≈ 210 µM). The “inhibition (INH)” value in data set [2] is 29.5%. Moreover, the Activity in data set [3] is reported as 30%. For the same compound, in [4], the hemolysis at 2 h, 100 ug/ml was found to be 2.4%. Further, the half-maximal inhibitory concentration (IC50) in data set [5] was found to be 4.1 µM. The inhibition in data set [8] came to 48.2%. In data set [6], this compound gave a logP of 3.34.

`C[C@@H](OC(=O)CCCNC1=NS(=O)(=O)c2ccccc21)C(=O)c1c[nH]c2ccccc12` yielded a minimal inhibitory concentration (MIC) in data set [1] of 100 mg/L (≈ 228 µM). Further, in data set [2], the “inhibition (INH)” value stood at 37.3%. Besides, in data set [3], the Activity turned out to be 31.6%. Further, the hemolysis at 2 h, 100 ug/ml in [4] was determined as 2.1%. Also, in data set [5], the IC50 came out at 11.8 µM. In addition, the logP in [6] amounted to 1.82.
